In patent US8003658B2, “Quinazoline derivatives for inhibiting cancer cell growth and method for the preparation thereof” (Hanmi Holdings Co., Ltd., priority 2004, dated 2011):
Like-named read-outs stand apart in the source and are kept apart here.

Assays:
[1] = target: EGFR (EGFR type 1 kinase) (Homo sapiens, UniProt P00533); assay: Inhibition of EGFR enzyme (fluorescence polarization kinase assay)
Experimental: 10 μl of EGFR (EGFR type 1 kinase) was added to each well of a 96-well microplate.

[2] = test system: SK-Br3 (ATCC: HTB-30); assay: Test of cancer cell growth inhibition (SRB), SK-Br3; details: read-out: IC50 SK-Br-3
[3] = test system: A431 (ATCC: CRL-1555); assay: Test of cancer cell growth inhibition (SRB), A431; details: read-out: IC50 A431
[4] = test system: SW-620 (ATCC: CCL-227); assay: Test of cancer cell growth inhibition (SRB), SW-620; details: read-out: IC50 SW-620
[5] = Erb-B2 overexpressed SK-Br3, 72 hours, SRB
[6] = EGFR overexpressed A431, 72 hours, SRB
[7] = SW-620 not having overexpressed EGFR and Erb-B2, 72 hours, SRB

C=CC(=O)N1CCC[C@H]1C(=O)Nc1cc2c(Nc3ccc(OCc4ccccn4)c(Cl)c3)ncnc2cc1OC [Example 166, (2S)-1-acryloyl-pyrrolidine-2-carboxylic acid {4-[3-chloro-4-(pyridin-2-ylmethoxy)-phenylamino]-7-methoxy-quinazolin-6-yl}-amide]
IC50 [1]: 3 nM | IC50 [2, 5]: 3 nM | IC50 [3, 6]: 27 nM

C=CC(=O)N1CCC[C@H]1C(=O)Nc1ccc2ncnc(Nc3ccc(OCc4ccccn4)c(Cl)c3)c2c1 [Example 145, (2S)-1-acryloyl-pyrrolidine-2-carboxylic acid {4-[3-chloro-4-(pyridin-2-ylmethoxy)-phenylamino]-quinazolin-6-yl}-amide]
IC50 [1]: 4 nM | IC50 ([2]; Homo sapiens, SK-BR-3, 72 h): 25 nM | IC50 [3, 6]: 32 nM

C=CC(=O)NCC(=O)Nc1cc2c(Nc3ccc(OCc4cccc(F)c4)c(Cl)c3)ncnc2cc1OC [Example 211, N-({4-[3-chloro-4-(3-fluoro-benzyloxy)-phenylamino]-7-methoxy-quinazolin-6-ylcarbamoyl}-methyl)-acrylamide]
IC50 [1]: 2 nM | IC50 ([2]; Homo sapiens, SK-BR-3, 72 h): 6 nM | IC50 ([3]; Homo sapiens, A-431, 72 h): 16 nM

C=CC(=O)NCCC(=O)Nc1ccc2ncnc(Nc3ccc(OCc4ccccn4)c(Cl)c3)c2c1 [Example 131, N-(2-{4-[3-chloro-4-(pyridin-2-ylmethoxy)-phenylamino]-quinazolin-6-ylcarbamoyl}-ethyl)-acrylamide]
IC50 [1]: 4 nM | IC50 ([2]; Homo sapiens, SK-BR-3, 72 h): 3 nM | IC50 ([3]; Homo sapiens, A-431, 72 h): 37 nM

C=CC(=O)NCCC(=O)Nc1cc2c(Nc3ccc(OCc4ccccn4)c(Cl)c3)ncnc2cc1OC [Example 167, N-(2-{4-[3-chloro-4-(pyridin-2-ylmethoxy)-phenylamino]-7-methoxy-quinazolin-6-ylcarbamoyl}-ethyl)-acrylamide]
IC50 [1]: 2 nM | IC50 ([2]; Homo sapiens, SK-BR-3, 72 h): 4 nM | IC50 ([3]; Homo sapiens, A-431, 72 h): 17 nM

C=CC(=O)NCCC(=O)N(C)c1ccc2ncnc(Nc3ccc(OCc4cccc(F)c4)c(Cl)c3)c2c1 [Example 139-5, N-[2-({4-[3-chloro-4-(3-fluoro-benzyloxy)-phenylamino]-quinazolin-6-yl}-methyl-carbamoyl)-ethyl]-acrylamide]
IC50 [1]: 5 nM | IC50 ([2]; Homo sapiens, SK-BR-3, 72 h): 47 nM | IC50 ([3]; Homo sapiens, A-431, 72 h): 69 nM

C=CC(=O)N1CCC[C@H]1C(=O)Nc1ccc2ncnc(Nc3ccc(OCc4cccc(C)n4)c(Cl)c3)c2c1 [Example 147, (2S)-1-acryloyl-pyrrolidine-2-carboxylic acid {4-[3-chloro-4-(6-methyl-pyridin-2-ylmethoxy)-phenylamino]-quinazolin-6-yl}-amide]
IC50 [1]: 2 nM | IC50 ([2]; Homo sapiens, SK-BR-3, 72 h): 19 nM | IC50 ([3]; Homo sapiens, A-431, 72 h): 21 nM

C=CC(=O)N(C)CCC(=O)Nc1ccc2ncnc(Nc3ccc(OCc4ccccn4)c(Cl)c3)c2c1 [Example 143, N-(2-{4-[3-chloro-4-(pyridin-2-ylmethoxy)-phenylamino]-quinazolin-6-ylcarbamoyl}-ethyl)-N-methyl-acrylamide]
IC50 [1]: 1 nM | IC50 ([2]; Homo sapiens, SK-BR-3, 72 h): 2 nM | IC50 ([3]; Homo sapiens, A-431, 72 h): 10 nM

C=CC(=O)N[C@@H](CC)C(=O)Nc1cc2c(Nc3ccc(OCc4ccccn4)c(Cl)c3)ncnc2cc1OC [Example 205, (2S)-2-acryloylamino-N-{4-[3-chloro-4-(pyridin-2-ylmethoxy)-phenylamino]-7-methoxy-quinazolin-6-yl}-butyramide]
IC50 [1]: 2 nM | IC50 ([2]; Homo sapiens, SK-BR-3, 72 h): 19 nM | IC50 ([3]; Homo sapiens, A-431, 72 h): 17 nM

C=CC(=O)N[C@@H](C)C(=O)Nc1cc2c(Nc3ccc(OCc4ccccn4)c(Cl)c3)ncnc2cc1OCCCN1CCOCC1 [Example 219, (1S)—N-(1-{4-[3-chloro-4-(pyridin-2-ylmethoxy)-phenylamino]-7-(3-morpholin-4-yl-propoxy)-quinazolin-6-ylcarbamoyl}-ethyl)-acrylamide]
IC50 [1]: 2 nM | IC50 ([2]; Homo sapiens, SK-BR-3, 72 h): 7 nM | IC50 ([3]; Homo sapiens, A-431, 72 h): 17 nM

C=CC(=O)N[C@@H](C)C(=O)Nc1cc2c(Nc3ccc(OCc4ccccn4)c(Cl)c3)ncnc2cc1OC [Example 190, (1S)—N-(1-{4-[3-chloro-4-(pyridin-2-ylmethoxy)-phenylamino]-7-methoxy-quinazolin-6-ylcarbamoyl}-ethyl)-acrylamide]
IC50 [1]: 2 nM | IC50 ([2]; Homo sapiens, SK-BR-3, 72 h): 6 nM | IC50 ([3]; Homo sapiens, A-431, 72 h): 13 nM

C=CC(=O)NCC(=O)Nc1cc2c(Nc3ccc(OCc4cccc(F)c4)c(Cl)c3)ncnc2cc1OCCOC [Example 217, N-({4-[3-chloro-4-(3-fluoro-benzyloxy)-phenylamino]-7-(2-methoxyethoxy)-quinazolin-6-ylcarbamoyl}-methyl)-acrylamide]
IC50 [1]: 2 nM | IC50 ([2]; Homo sapiens, SK-BR-3, 72 h): 3 nM | IC50 ([3]; Homo sapiens, A-431, 72 h): 14 nM

(1S)—N-(1-{4-[3-chloro-4-(pyridin-2-ylmethoxy)-phenylamino]-7-methoxy-quinazolin-6-ylcarbamoyl}-ethyl)-acrylamide [Example 216]
IC50 ([1]; read-out: IC50 EGFR, Poly (Glu, Tyr) 4:1 and ATP, 1 hour room temperature, FP readout): 2 nM | IC50 [2, 5]: 8 nM | IC50 [3, 6]: 13 nM

CC(C)(C)OC(=O)NCCC(=O)Nc1ccc2ncnc(Nc3ccc4c(cnn4Cc4ccccc4)c3)c2c1 [Example 77, {2-[4-(1-benzyl-1-indazol-5-ylamino)-quinazolin-6-ylcarbamoyl]-ethyl}-carbamic acid t-butylester]
IC50 [4, 7]: > 10 µM | IC50 [2, 5]: 86 nM | IC50 [3, 6]: 208 nM

COCC(=O)NCC(C)C(=O)Nc1ccc2ncnc(Nc3ccc(OCc4cccc(F)c4)c(Cl)c3)c2c1 (stereo not drawn) [Example 42-2, N-{4-[3-chloro-4-(3-fluoro-benzyloxy)-phenylamino]-quinazolin-6-yl}-3-(2-methoxy-acetylamino)-2-methyl-propionamide]
IC50 ([4]; Homo sapiens, SW-620, 72 h): > 10 µM | IC50 ([2]; Homo sapiens, SK-BR-3, 72 h): 102 nM | IC50 ([3]; Homo sapiens, A-431, 72 h): 340 nM

C=CC(=O)NCC(=O)Nc1ccc2ncnc(Nc3ccc(OCc4cccc(F)c4)c(Cl)c3)c2c1 [Example 4, N-({4-[3-chloro-4-(3-fluoro-benzyloxy)-phenylamino]-quinazolin-6-ylcarbamoyl}-methyl)-acrylamide]
IC50 ([4]; Homo sapiens, SW-620, 72 h): > 10 µM | IC50 ([2]; Homo sapiens, SK-BR-3, 72 h): 10 nM | IC50 ([3]; Homo sapiens, A-431, 72 h): 179 nM

O=C(CCl)NCCCC(=O)Nc1ccc2ncnc(Nc3ccc(OCc4cccc(F)c4)c(Cl)c3)c2c1 [Example 102, 4-(2-chloro-acetylamino)-N-{4-[3-chloro-4-(3-fluoro-benzyloxy)-phenylamino]-quinazolin-6-yl}-butyramide]
IC50 ([4]; Homo sapiens, SW-620, 72 h): > 10 µM | IC50 ([2]; Homo sapiens, SK-BR-3, 72 h): 80 nM | IC50 ([3]; Homo sapiens, A-431, 72 h): 345 nM

COCC(=O)NCC(O)C(=O)Nc1ccc2ncnc(Nc3ccc(OCc4cccc(F)c4)c(Cl)c3)c2c1 (stereo not drawn) [Example 40, N-{4-[3-chloro-4-(3-fluoro-benzyloxy)-phenylamino]-quinazolin-6-yl}-2-hydroxyl-3-(2-methoxy-acetylamino)-propionamide]
IC50 ([4]; Homo sapiens, SW-620, 72 h): > 10 µM | IC50 ([2]; Homo sapiens, SK-BR-3, 72 h): 84 nM | IC50 ([3]; Homo sapiens, A-431, 72 h): 327 nM

C=CC(=O)NCCCC(=O)Nc1ccc2ncnc(Nc3ccc(Oc4ccc(C)nc4)c(C)c3)c2c1 [Example 101, 4-acryloylamino-N-{4-[3-methyl-4-(6-methyl-pyridin-3-yloxy)-phenylamino]-quinazolin-6-yl}-butyramide]
IC50 ([4]; Homo sapiens, SW-620, 72 h): > 10 µM | IC50 ([2]; Homo sapiens, SK-BR-3, 72 h): 21 nM | IC50 ([3]; Homo sapiens, A-431, 72 h): 786 nM

O=C(CN1CCOCC1)NCCCC(=O)Nc1ccc2ncnc(Nc3ccc(OCc4cccc(F)c4)c(Cl)c3)c2c1 [Example 103, N-{4-[3-chloro-4-(3-fluoro-benzyloxy)-phenylamino]-quinazolin-6-yl}-4-(2-morpholin-4-yl-acetylamino)-butyramide]
IC50 ([4]; Homo sapiens, SW-620, 72 h): > 10 µM | IC50 ([2]; Homo sapiens, SK-BR-3, 72 h): 42 nM | IC50 ([3]; Homo sapiens, A-431, 72 h): 227 nM

COCC(=O)NCC(=O)Nc1ccc2ncnc(Nc3ccc(OCc4cccc(F)c4)c(Cl)c3)c2c1 [Example 2-4, N-({4-[3-chloro-4-(3-fluoro-benzyloxy)-phenylamino]-quinazolin-6-ylcarbamoyl}-methyl)-2-methoxy-acetamide]
IC50 ([4]; Homo sapiens, SW-620, 72 h): > 10 µM | IC50 ([2]; Homo sapiens, SK-BR-3, 72 h): 245 nM | IC50 ([3]; Homo sapiens, A-431, 72 h): 206 nM

CC(C)=CC(=O)NCCC(=O)Nc1ccc2ncnc(Nc3ccc(OCc4cccc(F)c4)c(Cl)c3)c2c1 [Example 29, 3-methyl-but-2-enonylic acid (2-{4-[3-chloro-4-(3-fluoro-benzyloxy)-phenylamino]-quinazolin-6-ylcarbamoyl}-ethyl)-amide]
IC50 [4, 7]: > 10 µM | IC50 [2, 5]: 54 nM | IC50 [3, 6]: 310 nM

CCNC(=O)NCCC(=O)Nc1ccc2ncnc(Nc3ccc(OCc4cccc(F)c4)c(Cl)c3)c2c1 [Example 123, N-{4-[3-chloro-4-(3-fluoro-benzyloxy)-phenylamino]-quinazolin-6-yl}-3-(3-ethyl-ureido)-propionamide]
IC50 ([4]; Homo sapiens, SW-620, 72 h): > 10 µM | IC50 ([2]; Homo sapiens, SK-BR-3, 72 h): 36 nM | IC50 ([3]; Homo sapiens, A-431, 72 h): 240 nM

C=CC(=O)N1CCCC1C(=O)Nc1ccc2ncnc(Nc3ccc(OCc4cccc(F)c4)c(Cl)c3)c2c1 (stereo not drawn) [Example 18, 1-acryloyl-pyrrolidine-2-carboxylic acid {4-[3-chloro-4-(3-fluoro-benzyloxy)-phenylamino]-quinazolin-6-yl}-amide]
IC50 ([4]; Homo sapiens, SW-620, 72 h): > 10 µM | IC50 ([2]; Homo sapiens, SK-BR-3, 72 h): 290 nM | IC50 ([3]; Homo sapiens, A-431, 72 h): 157 nM

O=C(CCNC(=O)C1=CCCC1)Nc1ccc2ncnc(Nc3ccc(OCc4cccc(F)c4)c(Cl)c3)c2c1 [Example 25, cyclopent-1-en carboxylic acid (2-{4-[3-chloro-4-(3-fluoro-benzyloxy)-phenylamino]-quinazolin-6-ylcarbamoyl}-ethyl)-amide]
IC50 ([4]; Homo sapiens, SW-620, 72 h): > 10 µM | IC50 ([2]; Homo sapiens, SK-BR-3, 72 h): 133 nM | IC50 ([3]; Homo sapiens, A-431, 72 h): 138 nM

CSCC(=O)NCCC(=O)Nc1ccc2ncnc(Nc3ccc(OCc4cccc(F)c4)c(Cl)c3)c2c1 [Example 117, N-{4-[3-chloro-4-(3-fluoro-benzyloxy)-phenylamino]-quinazolin-6-yl}-3-(2-methanesulfanyl-acetylamino)-propionamide]
IC50 [4, 7]: > 10 µM | IC50 [2, 5]: 40 nM | IC50 [3, 6]: 336 nM
